# Assay results as given in ChEMBL document CHEMBL6120994, “Unravelling the potential of natural chelating agents in the control of Staphylococcus aureus and Pseudomonas aeruginosa biofilms” (Eur J Med Chem, 2025).
# The source made the active and inactive calls. The rule behind the calls is not given here.
# Legend:
# Staphylococcus aureus [1] = test: Inhibition of virulence production in pre-established 24 hr-old Staphylococcus aureus CECT 976 biofilms assessed as diameter of gelatinases halo at 10XMTC measured after 48 hrs in presence of 1/2XMIC tobramycin (reference value: 9.3 to 9.5 mm); type: functional
# Staphylococcus aureus [2] = test: Inhibition of virulence production in Staphylococcus aureus CECT 976 biofilms assessed as diameter of siderophores halo at 1XMTC measured after 48 hrs (reference value: 12 mm); type: functional
# [3] = Metal chelating activity at iron(III) in chrome azurol sulphonate solution incubated for 30 mins by spectrophotometric analysis; settings: dose 6.25-1000 µg/ml
# Pseudomonas aeruginosa [4] = test: Antibiotic adjuvant activity against Pseudomonas aeruginosa ATCC 10145 assessed as potentiation of ciprofloxacin-induced antibacterial activity by measuring ciprofloxacin MIC at 15.6 ug/ml measured after 24 hrs by checkerboard assay (reference value: […] ug/ml); type: functional; settings: dose 15.6 µg/ml
# Cell membrane [5] = test: Disruption of membrane integrity in pre-established 24 hr-old Staphylococcus aureus CECT 976 assessed as PI uptake at 10000 ug/ml measured after 24 hrs in presence of 1/4XMIC to MIC tobramycin by PI staining based flow cytometry; type: subcellular; settings: dose 10000.0 µg/ml
# Staphylococcus aureus [6] = test: Inhibition of virulence production in pre-established 24 hr-old Staphylococcus aureus CECT 976 biofilms assessed as diameter of siderophores halo at 1XMTC measured after 48 hrs (reference value: 11.5 to 11.8 mm); type: functional
# Cell membrane [7] = test: Disruption of membrane integrity in Staphylococcus aureus CECT 976 biofilm assessed as increase in PI uptake at 500 ug/ml measured after 24 hrs in presence of 1/8X to 1/2XMIC tobramycin by flow cytometry; type: subcellular; settings: dose 500.0 µg/ml
# Staphylococcus aureus [8] = test: Antibacterial activity against Staphylococcus aureus CECT 976 assessed as inhibition of bacterial growth incubated for 24 hrs by broth microdilution method; type: functional
# Staphylococcus aureus [9] = test: Antibiofilm activity against preestablished 24 hr-old Staphylococcus aureus CECT 976 assessed as biomass removal at 1000 to 10000 ug/ml measured after 24 hrs by crystal violet staining method; type: functional; settings: dose 1000-10000 µg/ml, at 1000 to 10000 µg/mL
# Staphylococcus aureus [10] = test: Inhibition of virulence production in pre-established 24 hr-old Staphylococcus aureus CECT 976 biofilms assessed as diameter of gelatinases halo at 10XMTC measured after 48 hrs in presence of 1XMIC tobramycin (reference value: 9.5 to 10 mm); type: functional
# Pseudomonas aeruginosa [11] = test: Antibiotic adjuvant activity against Pseudomonas aeruginosa ATCC 10145 assessed as potentiation of ciprofloxacin-induced antibiofilm activity by measuring reduction in biomass production at 500 ug/ml measured after 24 hrs in presence of 1/16XMIC ciprofloxacin by cystal violet staining method (reference value: 36%); type: functional
# Pseudomonas aeruginosa [12] = test: Antibiotic adjuvant activity against Pseudomonas aeruginosa ATCC 10145 assessed as potentiation of ciprofloxacin-induced antibiofilm activity by measuring reduction in metabolic activity of biofilm cells at 500 ug/ml in presence of ciprofloxacin by resazurin staining based fluorescence analysis; type: functional, organism-based; settings: dose 500.0 µg/ml
# Staphylococcus aureus [13] = test: Inhibition of virulence production in pre-established 24 hr-old Staphylococcus aureus CECT 976 biofilms assessed as diameter of protease halo at 10XMTC measured after 72 hrs in presence of 1/4XMIC tobramycin (reference value: 12.5 to 12.8 mm); type: functional
# [14] = Metal chelating activity at iron(III) in chrome azurol sulphonate solution assessed as absorption spectra peak around […] incubated for 30 mins by spectrophotometric analysis
# Pseudomonas aeruginosa [15] = test: Antibiofilm activity against preestablished 24 hr-old Pseudomonas aeruginosa ATCC 10145 assessed as biomass removal at 1000 to 10000 ug/ml measured after 24 hrs by crystal violet staining method; type: functional; settings: dose 1000-10000 µg/ml, at 1000 to 10000 µg/mL
# Pseudomonas aeruginosa [16] = test: Antibiotic adjuvant activity against preestablished 24-hr old Pseudomonas aeruginosa ATCC 10145 assessed as potentiation of ciprofloxacin-induced antibiofilm activity by measuring reduction in metabolic activity of biofilm cells at 1000 ug/ml in presence of 1/8XMIC ciprofloxacin by resazurin staining based fluorescence analysis; type: functional, organism-based; settings: dose 1000.0 µg/ml
# Cell membrane [17] = test: Disruption of membrane integrity in pre-established 24 hr-old Staphylococcus aureus CECT 976 assessed as reduction in number of cells at 10XMTC measured after 24 hrs in presence of 1XMIC tobramycin by SYTO9/PI dye based epifluorescence microscopy
# Staphylococcus aureus [18] = test: Antibiofilm activity against Staphylococcus aureus CECT 976 assessed as reduction in biomass production at 500 to 1000 ug/ml measured after 24 hrs by crystal violet staining method; type: functional; settings: dose 500-1000 µg/ml, at 500 to 1000 µg/mL
# Staphylococcus aureus [19] = test: Inhibition of virulence production in pre-established 24 hr-old Staphylococcus aureus CECT 976 biofilms assessed as diameter of gelatinases halo at 1XMTC measured after 48 hrs (reference value: 10 mm); type: functional
# Staphylococcus aureus [20] = test: Inhibition of virulence production in pre-established 24 hr-old Staphylococcus aureus CECT 976 biofilms assessed as diameter of siderophores halo at 10XMTC measured after 48 hrs in presence of 1XMIC tobramycin (reference value: 11.3 +/-0.5 mm); type: functional
# Staphylococcus aureus [21] = test: Inhibition of virulence production in Staphylococcus aureus CECT 976 biofilms assessed as diameter of lipases halo at 1/2XMTC measured after 48 hrs in presence of 1/4XMIC tobramycin (reference value: 12.3 to 13.5 mm); type: functional
# Staphylococcus aureus [22] = test: Antibiotic adjuvant activity against Staphylococcus aureus CECT 976 assessed as potentiation of tobramycin-induced antibacterial activity by measuring fractional inhibitory concentration index (MBC) at 62.5 ug/ml measured after 24 hrs by checkerboard assay; type: functional; settings: dose 62.5 µg/ml
# Staphylococcus aureus [23] = test: Inhibition of virulence production in Staphylococcus aureus CECT 976 biofilms assessed as diameter of gelatinases halo at 1/2XMTC measured after 48 hrs in presence of 1/8XMIC tobramycin (reference value: 11.3 to 12 mm); type: functional
# Staphylococcus aureus [24] = test: Inhibition of virulence production in pre-established 24 hr-old Staphylococcus aureus CECT 976 biofilms assessed as diameter of siderophores halo at 10XMTC measured after 48 hrs in presence of 1/2XMIC tobramycin (reference value: 11.8 +/-0.5 mm); type: functional
# Pseudomonas aeruginosa [25] = test: Antibacterial activity against Pseudomonas aeruginosa ATCC 10145 assessed as inhibition of bacterial growth by measuring inhibition zone diameter at 100 ug/ml incubated for 24 hrs in presence of ciprofloxacin by disc diffusion method (reference value: 24.25 +/-0.5 mm); type: functional; settings: read-out: DIZ
# HepG2 = test: Induction of ROS production in human HepG2 cells assessed as DCF fluorescence at 90 to 1000 ug/ml measured after 24 hrs by DCFH-DA staining based fluorescence analysis; type: toxicity, cell-based; settings: hepg2, 24 h, at 90 to 1000 µg/mL, dose 90-1000 µg/ml
# Staphylococcus aureus [26] = test: Inhibition of virulence production in pre-established 24 hr-old Staphylococcus aureus CECT 976 biofilms assessed as diameter of protease halo at 10XMTC measured after 72 hrs in presence of 1XMIC tobramycin (reference value: 11.5 to 12 mm); type: functional
SMILES,Activity (Staphylococcus aureus [1]) [mm],Activity (Staphylococcus aureus [2]) [mm],Activity [3],MIC (Pseudomonas aeruginosa [4]) [µg/mL],Activity (Cell membrane [5]) [%],Activity (Staphylococcus aureus [6]) [mm],Activity (Cell membrane [7]),MIC (Staphylococcus aureus [8]) [µg/mL],inhibition (INH) (Staphylococcus aureus [9]) [%],Activity (Staphylococcus aureus [10]) [mm],inhibition at 500 µg/mL (Pseudomonas aeruginosa [11]) [%],Activity (Pseudomonas aeruginosa [12]),Activity (Staphylococcus aureus [13]) [mm],Activity [14],inhibition (INH) (Pseudomonas aeruginosa [15]) [%],Activity (Pseudomonas aeruginosa [16]),Activity (Cell membrane [17]),inhibition (INH) (Staphylococcus aureus [18]) [%],Activity (Staphylococcus aureus [19]) [mm],Activity (Staphylococcus aureus [20]) [mm],other results
O=c1cc(CO)occ1O [KOJIC ACID],0,10,Dose-dependent-effect,16,50,10,inactive,> 1000,15,0,60,inactive,0,Active,15,inactive,Active,26,0,10,Activity (Staphylococcus aureus [21]): 2 mm; fractional inhibitory concentration index (FICI) (Staphylococcus aureus [22]): 0.3; Activity (Staphylococcus aureus [23]): 0 mm; Activity (Staphylococcus aureus [24]): 10 mm; zone of inhibition at 100 µg/mL (Pseudomonas aeruginosa [25]): 30.2 mm; Activity (HepG2): ~ 80%; Activity (Staphylococcus aureus [26]): 0 mm
Cc1occc(=O)c1O [MALTOL],0,10,Dose-dependent-effect,16,50,10,inactive,> 1000,15,0,60,inactive,0,Active,15,inactive,Active,26,0,10.3,Activity (Staphylococcus aureus [21]): 2.3 mm; fractional inhibitory concentration index (FICI) (Staphylococcus aureus [22]): 0.3; Activity (Staphylococcus aureus [23]): 0 mm; Activity (Staphylococcus aureus [24]): 10 mm; zone of inhibition at 100 µg/mL (Pseudomonas aeruginosa [25]): 27.2 mm; Activity (HepG2): ~ 116%; Activity (Staphylococcus aureus [26]): 0 mm
